These results are taken from paper PMC11879040, “Advancing systemic toxicity risk assessment: Evaluation of a NAM-based toolbox approach” (Toxicological Sciences, 2024).

For series [1], the system named is 63 targets with known safety liabilities. As to the kind of experiment: In vitro pharmacological profiling (IPP) panel, screening at 10 or 100 µM and dose response, minimum IC50/AC50. It is filed as biochemical. The conditions noted are these: lowest AC50 across IPP panel (systemic targets); cell_type -; read-out: ipp_lowest_ac50_systemic PoD.
For series [2], the system named is HepaRG cells. As to the kind of experiment: High-throughput transcriptomics (HTTr, TempO-Seq), HepaRG, 24 h. It is filed as cell-based, human. As to the method: (§1) HepG2, HepaRG, and MCF7 cells were treated with each compound for 24 h across a dose range of 7 concentrations and lysed using TempO-Seq lysis buffer (BioSpyder Technologies, proprietary kit, see [Middleton et al. 2022] for method details). Sequencing was performed using TempO-Seq (BioClavis) version 2 of the human whole transcriptome panel and analyzed as described previously in Middleton et al.

The subject of series [3] is MCF7 cells. Description: High-throughput transcriptomics (HTTr, TempO-Seq), MCF7, 24 h. It counts as cell-based, human. The procedure: as §1
Series [4] concerns HepG2 cells. As to the kind of experiment: High-throughput transcriptomics (HTTr, TempO-Seq), HepG2, 24 h. It counts as cell-based, human. As to the method:
as §1

The subject of series [5] is HepG2 cells. Description: Cell stress panel (CSP), 24 h, 8 concentrations, BIFROST global PoD. The conditions noted are these: HepG2; cell stress panel PoD. It is filed as cell-based. As to the method: Compounds were tested using the previously developed cell stress panel ([Hatherell et al. 2020]) and the expanded biomarker panel outlined in Middleton et al. HepG2 cells were treated with all compounds for 24 h across 8 concentrations prior to biomarker analysis. The same plate layout and number of replicates (3 biological and 2 technical) were used as previously for each assay within the panel.

The subject of series [6] is Tubulin (r). As to the kind of experiment: IPP Tubulin binding. Details: species or system rat. The conditions noted are these: 100 uM; ligand/control Colchicine.
A short description of series [7]: Assignment of risk classifications to benchmark chemical-exposure scenarios. Particulars: Dermal; […]; Body lotion; Exp1; from table S1.
The target in series [8] is T1, Adenosine receptor A2a, ADORA2A (h) (Homo sapiens, UniProt P29274).
T1 construct: purchased Eurofins Cerep (SafetyScreen44-based IPP panel)
As to the kind of experiment: IPP ADORA2A binding (agonist radioligand). Particulars: IPP screening at 100 uM; control NECA.

The test system of series [9] is Glutamate receptor ionotropic NMDA 1 non-selective, GRIN1 (r). Particulars: IPP screening at 100 uM; control CGS 19755.
Series [10] concerns Potassium Voltage-Gated Channel Kv non-selective, KCNQ1 (r). Description: IPP KCNQ1 binding (antagonist radioligand). Details: species or system rat. The conditions noted are these: IPP screening at 100 uM; control α-dendrotoxin.
In series [11] the test system is Sodium channel protein type 5 subunit alpha (site 2), SCN5A (r). It is filed as binding, rat. The conditions noted are these: IPP screening at 100 uM; control veratridine.
Series [12] relates to Thyroid hormone receptor alpha, THRA (h). As to the kind of experiment: IPP THRA coactivator recruitment (agonist). Particulars: 100 uM; agonist; T3; * denotes assay interference (2-Amino-6-chloro-4-nitrophenol, HC Red 3). It is filed as biochemical, human.
In series [13] the test system is Gamma-aminobutyric acid receptor subunit alpha-1 BZD site, GABRA1A (r). It counts as binding, rat. The conditions noted are these: IPP screening at 100 uM; control diazepam.
For series [14], the system named is rat. Particulars: ref [19-22], cited from earlier work.
The mark [15] stands for this setting: HepaRG, HTTr minimum pathway BMD(L).
The mark [16] stands for this setting: MCF-7, HTTr minimum pathway BMD(L).
Setting [17] is: HepG2, HTTr minimum pathway BMD(L).

Each structure is given as a SMILES string. Counter-ions that a name gives are not always drawn. Like-named read-outs stand apart in the source and are kept apart here.

T1 sequence (P29274 whole entry): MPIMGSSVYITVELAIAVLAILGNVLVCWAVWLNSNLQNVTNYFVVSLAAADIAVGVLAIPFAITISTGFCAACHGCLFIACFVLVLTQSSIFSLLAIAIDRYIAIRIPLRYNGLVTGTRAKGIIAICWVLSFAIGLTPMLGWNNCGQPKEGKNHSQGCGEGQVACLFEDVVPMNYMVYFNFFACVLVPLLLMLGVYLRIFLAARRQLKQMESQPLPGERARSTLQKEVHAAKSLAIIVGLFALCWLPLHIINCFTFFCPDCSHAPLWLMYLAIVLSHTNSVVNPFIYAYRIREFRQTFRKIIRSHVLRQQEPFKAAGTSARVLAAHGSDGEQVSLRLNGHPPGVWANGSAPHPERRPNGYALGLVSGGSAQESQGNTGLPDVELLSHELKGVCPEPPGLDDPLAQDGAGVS

On to `CCCCOC(=O)c1ccc(O)cc1` [Butyl_4-hydroxybenzoate], for which the AC50 in series [1] is 6.58 µM. The “pod_httr_bifrost PoD” value in series [2] (HepaRG, HTTr BIFROST PoD) was 66.4882 µM; in series [3] (MCF-7, HTTr BIFROST PoD), 0.02978 µM; in series [4] (HepG2, HTTr BIFROST PoD), 10.9882 µM. Further, the “podl_path_minbmd PoD” value in series [2] (setting [15]) stood at 120 µM; in series [3] (setting [16]), 0.1304 µM; in [4] (setting [17]) it was 46.8548 µM.

In the case of `COc1ccc(O)c(C(C)(C)C)c1` [Butylated_Hydroxyanisole], in series [1], the AC50 amounted to 0.6 µM. The “pod_httr_bifrost PoD” value worked out at 6.323 µM in series [2] (HepaRG, HTTr BIFROST PoD); 8.844 µM in series [3] (MCF-7, HTTr BIFROST PoD); 9.643 µM in series [4] (HepG2, HTTr BIFROST PoD). Further, the “podl_path_minbmd PoD” value is reported as 13.7136 µM in series [2] (setting [15]), 25.2807 µM in [3] (setting [16]) and 21.4191 µM in series [4] (setting [17]).

As for `O=C(O)COCCN1CCN(C(c2ccccc2)c2ccc(Cl)cc2)CC1` (stereo not drawn) [Cetirizine_dihydrochloride], the AC50 in series [1] was found to be 0.081 µM. Also, the “pod_httr_bifrost PoD” value in series [2] (HepaRG, HTTr BIFROST PoD) came to 0.6956 µM; in [3] (MCF-7, HTTr BIFROST PoD) it was 3.21 µM; in [4] (HepG2, HTTr BIFROST PoD) it was 9.8579 µM. The “podl_path_minbmd PoD” value in [2] (setting [15]) came out at 13.467 µM; in series [3] (setting [16]), 78.4644 µM; in series [4] (setting [17]), 120 µM.

As to `O=CCCCC=O` [Glutaraldehyde Solution], the “pod_cell_stress PoD” value in series [5] is 37.601 µM.

`O=CCCCC=O` [Glutaraldehyde_Solution]: the “pod_httr_bifrost PoD” value was found to be 136.152 µM in series [2] (HepaRG, HTTr BIFROST PoD); 0.2467 µM in series [3] (MCF-7, HTTr BIFROST PoD); 19.467 µM in series [4] (HepG2, HTTr BIFROST PoD). The “podl_path_minbmd PoD” value is reported as 500 µM in [2] (setting [15]), 50 µM in series [3] (setting [16]) and 50 µM in series [4] (setting [17]).

Take `Nc1ccc(NCCO)c([N+](=O)[O-])c1` [HC_Red_3]: the AC50 in series [1] was 2.17 µM. Moreover, the “pod_httr_bifrost PoD” value is given as 0.1851 µM in series [2] (HepaRG, HTTr BIFROST PoD); 0.8099 µM in [3] (MCF-7, HTTr BIFROST PoD); 0.3766 µM in series [4] (HepG2, HTTr BIFROST PoD). The “podl_path_minbmd PoD” value was 0.9652 µM in series [2] (setting [15]), 25.6755 µM in series [3] (setting [16]) and 1.617 µM in series [4] (setting [17]).

`NNc1nncc2ccccc12` [Hydralazine_hydrochloride]: in series [1], the AC50 turned out to be 1.2 µM. The “pod_httr_bifrost PoD” value turned out to be 1.593 µM in series [2] (HepaRG, HTTr BIFROST PoD); 0.3784 µM in series [3] (MCF-7, HTTr BIFROST PoD); 1.708 µM in [4] (HepG2, HTTr BIFROST PoD). The entries for the “podl_path_minbmd PoD” value in series [2] (setting [15]), in series [3] (setting [16]) and in series [4] (setting [17]) were 111.897 µM, 100.098 µM and 20.4222 µM, respectively.

Take `CCN(CC)CCNC(=O)c1cc(Cl)c(N)cc1OC` [Metclopramide]: the AC50 in series [1] is 0.046 µM. For the same compound, the “pod_httr_bifrost PoD” value is listed as 30.9764 µM in series [2] (HepaRG, HTTr BIFROST PoD); 18.3439 µM in series [3] (MCF-7, HTTr BIFROST PoD); 16.0473 µM in [4] (HepG2, HTTr BIFROST PoD). Also, the figures for the “podl_path_minbmd PoD” value in series [2] (setting [15]), in series [3] (setting [16]) and in series [4] (setting [17]) were 92.5373 µM, 87.28 µM and 79.9772 µM, respectively. Moreover, the “pod_cell_stress PoD” value in series [5] amounted to 73.2603 µM.

`CN(C)[C@@H]1C(O)=C(C(N)=O)C(=O)[C@@]2(O)C(O)=C3C(=O)c4c(O)cccc4[C@@](C)(O)[C@H]3[C@H](O)[C@@H]12` [Oxytetracycline_hydrochloride]: the “pod_httr_bifrost PoD” value in series [2] (HepaRG, HTTr BIFROST PoD) came out at 4.2 µM; in [3] (MCF-7, HTTr BIFROST PoD), 0.6783 µM; in series [4] (HepG2, HTTr BIFROST PoD) it was 1.6523 µM. Moreover, the “podl_path_minbmd PoD” value in [2] (setting [15]) turned out to be 50.4384 µM; in [3] (setting [16]), 10.8661 µM; in [4] (setting [17]) it was 24.772 µM. The “pod_cell_stress PoD” value in [5] stood at 2.447 µM.

Take `CC(C)(CO)C(O)C(=O)NCCCO` (stereo not drawn) [Panthenol, 2,4-Dihydroxy-N-(3-hydroxypropyl)-3,3-dimethylbutanamide]: the “IPP screening %, Specific binding” value in series [6] is recorded as -5%. For the same compound, the risk in series [7] came out at 0. Moreover, the “HepaRG HTTr: concentration of single responding probe” value in series [2] (BIFROST probe-level PoD) was below 100 µM. For the same compound, the “HepaRG HTTr: next lowest probe” value in series [2] (BIFROST probe-level PoD) was 5100 µM. Further, the “pod_httr_bifrost PoD” value was 65.9596 µM in series [2] (HepaRG, HTTr BIFROST PoD); 767.225 µM in series [3] (MCF-7, HTTr BIFROST PoD); 7221.82 µM in series [4] (HepG2, HTTr BIFROST PoD). For the same compound, the “podl_path_minbmd PoD” value in series [2] (setting [15]) is 4552.59 µM; in series [3] (setting [16]), 20000 µM; in series [4] (setting [17]), 20000 µM. In [5], the “pod_cell_stress PoD” value is 18298.9 µM. Also, the Specific binding was 7.3% in series [8]; 0.2% in series [9]; -4.3% in series [10]; 27.9% in series [11]; -1.9% in [13]. Besides, the “IPP screening %, Coactivator recruitment” value in [12] was 2.0%.

For the compound `O=S(=O)([O-])NC1CCCCC1.[Na+]` [Sodium_Cyclamate], the “pod_httr_bifrost PoD” value in [2] worked out at 485.622 µM; in series [3], 202.953 µM; in series [4], 12.9839 µM. Also, the “podl_path_minbmd PoD” value in series [2] is on record as 442.002 µM; in series [3] it was 1200 µM; in series [4] it was 1200 µM.

For `O=C(O)c1ccc2c(c1)C(=O)OC2=O` [Trimellitic_anhydride], the “pod_httr_bifrost PoD” value in series [2] (HepaRG, HTTr BIFROST PoD) came out at 236.503 µM; in series [3] (MCF-7, HTTr BIFROST PoD), 423.806 µM; in [4] (HepG2, HTTr BIFROST PoD), 404.103 µM. Moreover, the “podl_path_minbmd PoD” value in series [2] (setting [15]) is on record as 100.049 µM; in [3] (setting [16]) it was 854.401 µM; in series [4] (setting [17]) it was 1078.54 µM. In addition, the “pod_cell_stress PoD” value in [5] turned out to be 34.7606 µM.

Regarding `COc1ccc(CCN(C)CCCC(C#N)(c2ccc(OC)c(OC)c2)C(C)C)cc1OC` (stereo not drawn) [Verapamil_hydrochloride], the AC50 in series [1] stood at 0.017 µM. Further, the “pod_httr_bifrost PoD” value in [2] (HepaRG, HTTr BIFROST PoD) is on record as 1.688 µM; in [3] (MCF-7, HTTr BIFROST PoD), 0.3576 µM; in [4] (HepG2, HTTr BIFROST PoD), 1.132 µM. The “podl_path_minbmd PoD” value in series [2] (setting [15]) turned out to be 24.0605 µM; in [3] (setting [16]), 10.6709 µM; in [4] (setting [17]), 8.538 µM.

`NC1CCCCC1` [cyclohexylamine]: the NOAEL in series [14] (90 day rat study, cyclohexylamine administered) was 100 mg/kg bw/day. The “dose at which testicular toxicity was observed” value in series [14] (testicular atrophy and giant cell formation) is given as at least 200 mg/kg bw/day.

The term NOAEL denotes the highest tested level that showed no adverse finding.
